According to US20230390283A1, “USES OF CHK2 INHIBITORS” (The University of Birmingham, priority 2020, published 2023):
Entries after “also recorded” stand apart in the source; their conditions may differ.

Experiments:
[1] = test system: primary adult rat dorsal root ganglion neuron (DRGN) cultures; experiment: DRGN survival and neurite outgrowth in culture; assay type: cell-based; details: for optimal concentration that promoted DRGN/RGC survival and neurite outgrowth: preliminary experiments, DRGN/RGC cultures
Experimental: (§1) Rat DRGN and retinal cultures. […] Cells were cultured for 4 days in a humidified chamber at 37° C. and 5% CO2 before being subjected to quantitative RT-PCR or immunocytochemistry, as described below.
Immunocytochemistry. […] Slides were then viewed with an epi-fluorescent Axioplan 2 microscope, equipped with an AxioCam HRc and running Axiovision Software (all from Carl Zeiss, Hertfordshire, UK).

dorsal column (DC) axons = experiment: DC crush injury model: GAP43+ DC axon regeneration; assay type: in vivo, rat
[2] = test system: T8 dorsal column (DC) crush model of spinal cord injury; experiment: DC crush injury model: electrophysiology (compound action potentials); assay type: in vivo, rat; details: 6 weeks after DC injury
Experimental: (§2) DC crush injury model. Rats were injected subcutaneously with 0.05 ml Buprenorphine to provide analgesia prior to surgery and anaesthetised using 5% of Isoflurane in 1.8 ml/l of O2 with body temperature and heart rate monitored throughout surgery.
(§3) Chk2 inhibition studies in the DC crush injury model. […] Chk1i (LY2603618) was used at equimolar concentrations for each experiment. Rats were killed in a rising concentration of CO2 at either 28 d for immunohistochemistry and western blot analyses or 6 weeks for electrophysiology and functional tests.
Electrophysiology. […] Briefly, with the experimenter masked to the treatment conditions, silver wire electrodes applied single-current pulses (0.05 ms) through a stimulus isolation unit in increments (0.2, 0.3, 0.6, 0.8, and 1.2 mA) at L1-L2 and compound action potentials (CAP) were recorded at C4-C5 along the surface of the midline spinal cord. Spike 2 software was then used to calculate CAP amplitudes between the negative deflection after the stimulus artifact and the next peak of the wave. CAP area was calculated by rectifying the negative CAP component (full-wave rectification) and measuring its area. At the different stimulation intensities. […] Representative CAP traces are processed output data from Spike 2 software.

[3] = test system: T8 dorsal column (DC) crush model of spinal cord injury; experiment: DC crush injury model: tape sensing and removal test (sensory function); assay type: in vivo, rat; details: followed over 6 weeks
Experimental: as §2, §3
(§4) Functional tests. […] Experiments were performed by 2 observers (treatment conditions were masked) in the same order, the same time of day and each test performed for 3 individual trials.

[4] = test system: T8 dorsal column (DC) crush model of spinal cord injury; experiment: DC crush injury model: horizontal ladder test (locomotor function); assay type: in vivo, rat; details: followed over 6 weeks
Experimental: as §2, §3, §4
Horizontal ladder test: This tests the animals locomotor function and is performed on a 0.9-meter-long horizontal ladder with a diameter of 15.5 cm and randomly adjusted rungs with variable gaps of 3.5-5.0 cm. The total number of steps taken to cross the ladder and the left and right rear paw slips being were recorded and the mean error rate was then calculated by dividing the number of slips by the total number of steps taken.

RGC [5] = experiment: Glaucoma model: RGC survival in retinal wholemounts; assay type: in vivo, rat; details: 30 days after induction of glaucoma
Experimental: Induction of glaucoma. […] At day zero, a self-sealing incision was made though the cornea into the anterior chamber enabling twice weekly intracameral injections of 3.5 μl of TGFβ2 (5 ng/μl) using glass micropipettes for 30 days. Vehicle, comprising saline, was injected in control groups. Intraocular pressure was measured using an iCare Tonolab rebound tonometer (Icare, Helsinki, Finland).
(§5) Assessment of RGC survival.

RGC [6] = experiment: Optic neuritis model: RGC survival (Fluorgold backfilled wholemounts); assay type: in vivo, mice; details: 21 days after induction
Experimental: (§6) Induction of optic neuritis. […] Animals were intraperitoneally injected with 150 ng Bordetella pertussis toxin on day 0 and 2. Animals were monitored daily and assessed for the development of EAE. At the end of the experiment, animals were then killed by CO2 overdose.
as §5

[7] = test system: retinal nerve fibre layer; experiment: Optic neuritis model: RNFL thickness by OCT; assay type: in vivo, mice; details: day 21
Experimental: as §6
Measurement of RNFL thinning using optical coherence tomography (OCT). […] Examinations were recorded in both right (oculus dextrus, OD) and left eyes (oculus sinister, OS) of each animal at day 0 and day 21 after immunisation. […] A RNFL single exam using the automatic real time (ART) mode (allows averaging of 100 recordings) was produced for each mouse eye, which automatically measured RNFL thickness (μm) in a 30° circle surrounding the optic nerve head.

RGC function = details: 24 days after ONC
pChk2^T68 and pChk2^T383 = details: western blot and densitometry
Experimental: as §1
Protein extraction and western blot analysis. […] For densitometry, western blots were scanned into Adobe Photoshop (Adobe Systems Inc, San Jose, Calif., USA) and analysed using the built-in-macros for gel analysis in ImageJ (NIH, USA, http://imagej.nih.clov/ij).

With `NC(=O)c1ccc2[nH]c(-c3ccc(Oc4ccc(Cl)cc4)cc3)nc2c1` [BML-277] the “optimal concentration that promoted DRGN/RGC survival and neurite outgrowth” value [1] was 5 µM.
`COc1cc2nc(-c3cc(F)ccc3O)nc(N[C@@H]3CNC[C@H]3C(C)(C)O)c2cc1OC` [CCT241533] was tested, and the “optimal concentration that promoted DRGN/RGC survival and neurite outgrowth” value [1] was 10 µM.
For `Cc1cnc(NC(=O)Nc2cc(Br)c(C)cc2OC[C@@H]2CNCCO2)cn1` [LY2603618], the “effect on DRGN/RGC survival” value ([1]; 1-50 μM) was “no effect”, the “effect on DRGN survival, % DRGN with neurites and neurite length” value ([1]; 4 days culture) was “no effect” and the “DC axon regeneration beyond the lesion site” value (dorsal column (DC) axons; listed as Chk1 i) was “few GAP43^+ axons”. For the same compound, the “DC axon regeneration beyond the lesion site” value (dorsal column (DC) axons; listed as Chk1i) was “no axon regeneration beyond the lesion site”, the “CAP area at different stimulation intensities” value [2] was “significantly attenuated” and the “negative CAP amplitudes” value ([2]; different stimulation intensities) was “significantly attenuated”. The “tape sensing/removal test performance” value ([3]; listed as Chk1 i) was “a significant deficit remained”, the “tape sensing/removal test performance” value ([3]; listed as Chk1i) was “a significant deficit remained” and the “ladder crossing test performance” value ([4]; listed as Chk1 i) was “a deficit remaining”. For the same compound, the “ladder crossing test performance” value ([4]; listed as Chk1i) was “a significant deficit remains; also recorded: a deficit remaining”, the “RGC survival in glaucoma” value (RGC [5]) was “no effect” and the “RGC survival in optic neuritis” value (RGC [6]) was “no effect”. For the same compound, the “RNFL thickness in optic neuritis” value [7] was “no effect” and the “ERG traces and pSTR amplitude” value (RGC function) was “no effect”.
In the case of `COc1cccc(OCCCN)c1-c1cc(Nc2cnc(C#N)cn2)n[nH]1` [Prexasertib], the “optimal concentration that promoted DRGN/RGC survival and neurite outgrowth” value [1] is reported as 10 µM.
With CCT241533 the “Chk2 phosphorylation (pChk2^T68, pChk2^T383) in DRGN cultures” value (pChk2^T68 and pChk2^T383) was “suppresses”.
For “FGF2: positive control for DRGN cultures, pre-optimised 10 ng/ml”, the “% DRGN with neurites” value ([1]; 4 days culture) was 42% and the mean neurite length ([1]; 4 days culture, controls 12 μm) was 180 μm.
